Experiments:
TF = TF expression on peripheral blood monocytes, 2-color FACS; assay type: in vivo, mouse; details: CBA/J×DBA/2 mice, FIG. 17G
Experimental: Determining TF Expression. TF expression on peripheral blood monocytes was analyzed by 2-color fluorescence-activated cell sorting (FACS). Heparinized whole blood obtained at day 7 from DBA/2 or BALB/c mated CBA/J females was stained with fluorescein isothiocyanate (FITC)-labeled anti-mouse F4/80 for FL1 (BD Biosciences Pharmingen) to identify monocytes and biotinylated rat anti-mTF antibody 1H1 and streptavidin-PerCP (BD Biosciences Pharmingen) as the FL3 fluorochrome. Red cells were lysed with ACK buffer (Redecha et al., supra). Preparations were then incubated with SA-PerCP and analyzed by FACS using a FACscan (BD Biosciences Pharmingen).

sFlt-1 = experiment: Plasma sFlt-1 (sVEGFR-1) ELISA in CBA/J×DBA/2 mice; assay type: in vivo, mouse; details: day 7 of pregnancy
Experimental: Protocol. To determine the effect of pravastatin treatment on pregnancy loss and oxidative stress, group of mice was treated with pravastatin (Sigma Chemicals, St Louis, Mo.; 5 μg/mouse, IP) from day 4 to 15 of pregnancy. Pravastatin was directly dissolved in sterile PBS. Blood samples were obtained from pregnant females from days 1 to 15 of pregnancy from the submandibular vein. Nitric oxide (NO) was measured by a […] method (R&D Systems). Plasma sVEGFR-1 was measured with a commercial ELISA kit (R&D Systems).

monocytes = experiment: sFlt-1 release by monocytes in vitro (ELISA); assay type: cell-based, mouse; details: 10 nM C5a for 4 h; pravastatin 5 μg/ml for 3 hours prior to C5a
Experimental: Protocol. Mice with a selective deletion of the TF gene in myeloid cells (TF^floxed/floxed/LysM-Cre mice) (Redecha et al., supra), were used for isolation of monocytes to study sVEGFR-1 production in vitro. Blockade of TF was carried out as in Example 17 by i.p. injections of anti-mTF antibody 1H1.
Protocol. Splenocytes were prepared from non pregnant CBA/J female mice and incubated for 4 h in culture medium supplemented with 10% inactivated fetal bovine serum (FBS). Non adherent cells were removed and adherent cells (>95% peroxidase-positive) were incubated in culture medium with the addition of 10 nM mouse recombinant C5a. A group of adherent monocytes was treated for 3 hours with pravastatin (5 μg/ml) prior to incubation with C5a. After 4 h of incubation with C5a, culture supernatants were collected and analyzed for sVEGFR-1 by ELISA (R&D Systems).

CBA/J×DBA/2 mice [1] = experiment: Fetal resorption frequency in CBA/J×DBA/2 matings (non aPL-dependent recurrent miscarriage); assay type: in vivo, mouse; details: day 15 of pregnancy, FIG. 7, 15A, 17A
Text: Protocol. DBA/2-mated female CBA/J mice (CBA/J×DBA/2) are a well-studied model of immunologically mediated pregnancy loss that shares features with human recurrent miscarriage (Clark, D A et al., 1998, J. Immunol. 160:545-549; Blois, M. et al., 2005, J. Immunol. 174:1820-1829). Embryonic lethality in DBA/2-mated female CBA/J mice is believed to represent rejection of the semiallogeneic placenta by maternal-derived activated effectors. 8-10-wk-old virgin female CBA/J mice were mated with 8-14-wk-old CBA/J, BALB/c, or DBA/2 males. Females were inspected daily for vaginal plugs, and presence of a vaginal plug was designated as day 0 of pregnancy. A group of DBA/2- and BALB/c mated CBA/J females were treated with pravastatin (0.2 μg/g bw=5 μg/mouse, i.p) on days 5, 6 and 7 of pregnancy. […] Pregnant females were euthanized on day 15 and fetal resorption frequency was calculated.
Animals. Inbred CBA/J (H-2k), DBA/2 (H-2d) and BALB/c (H-2d) mice from The Jackson Laboratory were used. 8-10-wk-old virgin female CBA/J mice were mated with 8-14-wk-old BALB/c, or DBA/2 males. […] The frequency of fetal resorption was calculated on day 15 as previously described (Girardi et al., 2006, J Exp Med 203:2165-2175). Fetal weights were also determined. […]
(§1) Protocol. […] Nitric oxide (NO) was measured by a calorimetric method (R&D Systems). Plasma sVEGFR-1 was measured with a commercial ELISA kit (R&D Systems).

CBA/J×DBA/2 mice [2] = experiment: Fetal weight / IUGR in CBA/J×DBA/2 matings; assay type: in vivo, mouse; details: day 15 of pregnancy, FIG. 10, 15B, 17B
Experimental: Protocol. 8-10-wk-old virgin female CBA/J mice were mated with 8-14-wk-old CBA/J, BALB/c, or DBA/2 males. Females were inspected daily for vaginal plugs, and presence of a vaginal plug was designated as day 0 of pregnancy. Pregnant mice were treated with pravastatin (0.2 μg/g bw=5 μg/mouse, i.p 18 hours prior to aPL or NHIgG injections on days 8 and 12). Pravastatin (Sigma Chemical, St Louis, Mo.) was dissolved in EtOH at a concentration of 10 mg/mL and diluted with NaCl 0.9% in a ratio of 1:1000 to yield a final concentration of 10 μg pravastatin per 1 mL carrier. The NaCl 0.9%-based carrier solution for the placebo group was prepared accordingly to include EtOH only (i.e., without pravastatin) at a concentration of 1:1000. Pregnant females were euthanized on day 15 and weights of fetuses were determined.
Animals. Inbred CBA/J (H-2k), DBA/2 (H-2d) and BALB/c (H-2d) mice from The Jackson Laboratory were used. 8-10-wk-old virgin female CBA/J mice were mated with 8-14-wk-old BALB/c, or DBA/2 males. Pregnant females were sacrificed at day 7 and at day 15. The frequency of fetal resorption was calculated on day 15 as previously described (Girardi et al., 2006, J Exp Med 203:2165-2175). Fetal weights were also determined. […]
as §1

CBA/J×DBA/2 mice [3] = experiment: Litter size at birth in CBA/J×DBA/2 matings; assay type: in vivo, mouse; details: CBA/J×DBA/2 mice followed until delivery; FIG. 15C, 17C
Experimental: Measuring Thrombin-Anti-Thrombin Complexes. Thrombin anti thrombin III complex (TAT) was measured using a commercial ELISA kit (Enzygnost TAT; Dade Behring). Some mice from each experimental group were studied until delivery and the litter sizes were recorded at birth.

[4] = system: Isoprostane 8-iso-prostaglandin F2a (STAT-8); experiment: Placental STAT-8 (8-isoprostane) EIA, oxidative stress marker; assay type: in vivo, mouse; details: CBA/J×DBA/2 mice, day 15 placentas, FIG. 16A
Experimental: STAT-8 Measurements. Isoprostane 8-iso-prostaglandin F2a (STAT-8) was measured as a marker for oxidative stress. Placental tissue was harvested at day 15 of pregnancy and homogenized in 9 volumes of 0.1 M Tris pH 7.4 containing 1 mM EDTA and 10 μM indomethacin and stored at −80° C. in the presence of 0.005% BHT before assayed for free 8-isoprostane using a STAT-8-Isoprostane EIA kit (Cayman Chemical Company, Ann Arbor, Mich.).

Compound	% TF positive monocytes (TF)	plasma sFlt-1 levels (sFlt-1)	sFlt-1 released by monocytes (monocytes)	fetal resorption / fetal loss (CBA/J×DBA/2 mice [1])	IUGR / growth restriction (fetal weight) (CBA/J×DBA/2 mice [2])	litter size at birth (CBA/J×DBA/2 mice [3])	placental STAT-8 increase [4]
CC[C@H](C)C(=O)O[C@H]1C[C@H](O)C=C2C=C[C@H](C)[C@H](CC[C@@H](O)C[C@@H](O)CC(=O)O)[C@H]21 [pravastatin]	10±4%	18650 ± 5680 pg/mL	387 ± 78 pg/mL	–	–	–	–
hirudin	–	–	–	prevented fetal resorptions	prevented fetal resorptions and growth restriction	increasing the litter size	prevented STAT-8 increase
